In patent publication US12649723B2, “Carbonohydrazonoyl dicyanide compounds comprising 2 or more aryl or heteroaryl connected via linker and use thereof” (KOREA INSTITUTE OF SCIENCE AND TECHNOLOGY, priority 2020, dated 2026):

Experiments:
tau protein = molecular target: T1, tau protein (Homo sapiens, UniProt P10636); experiment: Tau-BiFC cell model: inhibition of tau protein aggregation; type: cell-based; settings: for remaining activity at 10 µM: compound 10 μM, BiFC fluorescence, read-out: Response (% @10 μM); for IC50: Tau BiFC in cells, with Forskolin 30 μM, 48 hours
T1 construct: fused on or other part: Split fluorescent-protein halves for BiFC are fused to tau; In the published tau-BiFC line these are Venus VN173 and VC155
T1 sequence (P10636 2-441 isoform P10636-8 limits assumed): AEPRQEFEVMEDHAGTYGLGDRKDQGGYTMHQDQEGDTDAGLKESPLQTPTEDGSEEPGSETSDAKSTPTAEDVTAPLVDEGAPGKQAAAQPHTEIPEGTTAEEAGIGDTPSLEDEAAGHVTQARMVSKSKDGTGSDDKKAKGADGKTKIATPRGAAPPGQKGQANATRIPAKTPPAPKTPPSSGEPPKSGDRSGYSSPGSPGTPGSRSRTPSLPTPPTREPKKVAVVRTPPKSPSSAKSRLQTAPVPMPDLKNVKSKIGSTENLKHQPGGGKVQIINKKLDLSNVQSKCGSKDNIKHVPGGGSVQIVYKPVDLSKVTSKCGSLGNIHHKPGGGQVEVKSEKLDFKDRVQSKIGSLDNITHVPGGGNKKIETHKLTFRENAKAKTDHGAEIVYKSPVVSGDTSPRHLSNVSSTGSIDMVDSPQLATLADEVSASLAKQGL
Experimental: (§1) In order to select novel tau protein aggregation-inhibiting substances, tau-BiFC cell model, in which formation of tau oligomers in living cells is easily observed, was used. Tau-BiFC cells were aliquoted into a 384-well plate. On the next day, the cells were treated with each of the compounds prepared according to Examples 1 to 175 at concentrations of 1 μM, 3 μM, and 10 μM, together with Forskolin (at a treatment concentration of 30 μM), which is a compound inducing tau protein aggregation by activating tau […] PKA. After 48 hours, nuclei in the cells were stained using Hoechst (at a treatment concentration of 2 μg/mL), and BiFC fluorescence intensity was automatically measured using Operetta (PerkinElmer) to count stained nuclei in each well out of the entire well plate. The group treated only with Forskolin, which induces tau protein aggregation, was set to a reference point of a 100% tau protein-aggregated state, and the effects of the compounds were confirmed using the equation “BiFC fluorescence intensity due to compound synthesized according to embodiment of present invention/(fluorescence intensity of control group treated only with Forskolin inducing tau protein aggregation−fluorescence intensity of untreated control group)×100”. Furthermore, the degree of cytotoxicity induced by the newly synthesized compound was also measured based on the 100% cell viability of the group treated only with Forskolin as a reference, and the cytotoxicity value of each compound was calculated using the equation “(number of stained nuclei in group treated with compound/number of stained nuclei in group treated with Forskolin)×100”. Based on the treatment results, substances inhibiting intracellular tau protein aggregation were selected from a series of candidate groups showing a tau protein aggregation inhibition rate of 70% or more and cell viability of 100% at a compound treatment concentration of 10 μM or more.
(§2) In order to evaluate dose-dependent tau protein aggregation inhibition effects of the compounds selected according to Experimental Example 1 on tau protein aggregation, tau-BiFC cells were treated with the selected compounds at concentrations of 0.03 μM, […], 0.3 μM, 1 μM, 3 μM, 10 μM, and 30 μM, respectively, together with Forskolin (at a treatment concentration of 30 μM), which is a tau protein aggregation inducing substance. After 48 hours, tau protein aggregation reaction and degrees of cytotoxicity were analyzed by observing images of the cells. IC50 and toxicity of the compounds were analyzed by way of nonlinear regression analysis of prism software (Graph Pad).

Tau-BiFC cells = experiment: Cell viability (cytotoxicity) in tau-BiFC cells, count of stained nuclei; type: cell-based; settings: Forskolin-only group = 100% cell viability; for Cell viability (% @10 μM): compound 10 μM
Experimental: as §1, §2

[1] = 48 h, Forskolin-only group = 100% tau protein-aggregated state

SMILES	remaining activity at 10 µM (tau protein; [1]) [%]	Cell viability (% @10 μM) (Tau-BiFC cells) [%]	IC50 (tau protein) [nM]	remaining activity at 3 µM (tau protein; 48 h, compounds marked *: measured at 3 μM, Forskolin-only group = 100% tau protein-aggregated state, read-out: Response) [%]	Cell viability (Tau-BiFC cells; compounds marked *: measured at 3 μM) [%]
Cc1cnc(NC(=O)c2ccc(NN=C(C#N)C#N)cc2Cl)cn1 [Compound 106, (3-chloro-4-(5-methylpyrazin-2-ylcarbamoyl)phenyl)carbonohydrazonoyl dicyanide]	0	184.9			
COc1ccc(S(=O)(=O)Nc2ccc(NN=C(C#N)C#N)cn2)cc1 [Compound 59, (6-(4-methoxyphenylsulfonamido)pyridin-3-yl)carbonohydrazonoyl dicyanide]	74.3	128.2			
N#CC(C#N)=NNc1ccc(C(=O)Nc2cccnc2)cc1 [Compound 49, (4-(pyridin-3-ylcarbamoyl)phenyl)carbonohydrazonoyl dicyanide]	75.9	117.2			
Cc1cncc(NC(=O)c2ccc(NN=C(C#N)C#N)cn2)c1 [Compound 39, (6-(5-methylpyridin-3-ylcarbamoyl)pyridin-3-yl)carbonohydrazonoyl dicyanide]	0	131.1	630		
Cc1cnc(C(=O)Nc2ncc(NN=C(C#N)C#N)cc2C)cn1 [Compound 12, (5-methyl-6-(5-methylpyrazine-2-carboxamido)pyridin-3-yl)carbonohydrazonoyl dicyanide]	17.9	122.1	640		
Cc1ccc(NC(=O)c2ccc(NN=C(C#N)C#N)cc2)cn1 [Compound 47, (4-(6-methylpyridin-3-ylcarbamoyl)phenyl)carbonohydrazonoyl dicyanide]	0	122.7	2580		
N#CC(C#N)=NNc1ccc(OCc2nc3ccccc3s2)cc1 [Compound 129, (4-(benzo[d]thiazol-2-ylmethoxy)phenyl)carbonohydrazonoyl dicyanide]	0	106.9	200		
N#CC(C#N)=NNc1ccc(OCCc2ccc(Cl)cc2)c(C(F)(F)F)c1 [Compound 133, (4-(4-chlorophenethoxy)-3-(trifluoromethyl)phenyl)carbonohydrazonoyl dicyanide]	0	39.7			
N#CC(C#N)=NNc1ccc(NC(=O)c2ncccn2)nc1 [Compound 29, (6-(pyrimidine-2-carboxamido)pyridin-3-yl)carbonohydrazonoyl dicyanide]	0	139.9	1040		
N#CC(C#N)=NNc1ccc(OCCc2ccccc2)c(C(F)(F)F)c1 [Compound 101, (4-phenethoxy-3-(trifluoromethyl)phenyl)carbonohydrazonoyl dicyanide]	0	30.1	950		
Cc1cnc(NS(=O)(=O)c2ccc(NN=C(C#N)C#N)cc2)cn1 [Compound 67, (4-(N-(5-methylpyrazin-2-yl)sulfamoyl)phenyl)carbonohydrazonoyl dicyanide]	68.2	108.4			
N#CC(C#N)=NNc1ccc(Oc2ccccc2)cn1 [Compound 70, (5-phenoxypyridin-2-yl)carbonohydrazonoyl dicyanide]	0	94.5	310		
Cc1cnc(C(=O)Nc2ccc(NN=C(C#N)C#N)c(Cl)c2)cn1 [Compound 5, (2-chloro-4-(5-methylpyrazine-2-carboxamido)phenyl)carbonohydrazonoyl dicyanide]	14.5	61.2			
Cc1cnc(C(=O)Nc2ccc(NN=C(C#N)C#N)cc2)cn1 [Compound 2, (4-(5-methylpyrazine-2-carboxamido)phenyl)carbonohydrazonoyl dicyanide]	0	71.5	1400		
N#CC(C#N)=NNc1ccc(OCc2cccnn2)cc1 [Compound 127, (4-(pyridazin-3-ylmethoxy)phenyl)carbonohydrazonoyl dicyanide]	0	134.9	1200		
CC(Oc1ccc(NN=C(C#N)C#N)cc1)c1ccc(C(F)(F)F)cc1 (stereo not drawn) [Compound 139, (4-(1-(4-(trifluoromethyl)phenyl)ethoxy)phenyl)carbonohydrazonoyl dicyanide]				39	123
N#CC(C#N)=NNc1ccc(Oc2cccnn2)cc1 [Compound 92, (4-(pyridazin-3-yloxy)phenyl)carbonohydrazonoyl dicyanide]	0	116.8	550		
Cc1cnc(NC(=O)c2ccc(NN=C(C#N)C#N)cn2)cn1 [Compound 36, (6-(5-methylpyrazin-2-ylcarbamoyl)pyridin-3-yl)carbonohydrazonoyl dicyanide]	35.9	86.9			
COc1ccc(NC(=O)c2ccc(NN=C(C#N)C#N)cn2)cc1 [Compound 35, (6-(4-methoxyphenylcarbamoyl)pyridin-3-yl)carbonohydrazonoyl dicyanide]	34.2	97.9			
Cc1ccc(NC(=O)c2ccc(NN=C(C#N)C#N)cn2)cc1 [Compound 34, (6-(p-tolylcarbamoyl)pyridin-3-yl)carbonohydrazonoyl dicyanide]	76	88.1	9000		
N#CC(C#N)=NNc1ccc(OCc2ccccc2)nc1 [Compound 95, (6-(benzyloxy)pyridin-3-yl)carbonohydrazonoyl dicyanide]	0	71.9			
Cc1cc(NN=C(C#N)C#N)ccc1Oc1ccncc1 [Compound 79, (3-methyl-4-(pyridin-4-yloxy)phenyl)carbonohydrazonoyl dicyanide]	65.9	115.7			
N#CC(C#N)=NNc1ccc(C(=O)Nc2ncccn2)nc1 [Compound 43, (6-(pyrimidin-2-ylcarbamoyl)pyridin-3-yl)carbonohydrazonoyl dicyanide]	3	168.6			
N#CC(C#N)=NNc1ccc(Oc2ccccc2C#N)cc1 [Compound 86, (4-(2-cyanophenoxy)phenyl)carbonohydrazonoyl dicyanide]	0	72.6	2120		
Cc1cncc(NC(=O)c2ccc(NN=C(C#N)C#N)cc2)c1 [Compound 48, (4-(5-methylpyridin-3-ylcarbamoyl)phenyl)carbonohydrazonoyl dicyanide]	0	122.3			
N#CC(C#N)=NNc1ccc(OCc2ccc(C(F)(F)F)cc2)nc1 [Compound 96, (6-(4-(trifluoromethyl)benzyloxy)pyridin-3-yl)carbonohydrazonoyl dicyanide]	0	27.5	400		
N#CC(C#N)=NNc1ccc(OCCc2ccc(C(F)(F)F)cc2)c(C(F)(F)F)c1 [Compound 135, (3-(trifluoromethyl)-4-(4-(trifluoromethyl)phenethoxy)phenyl)carbonohydrazonoyl dicyanide]	0	41.7			
Cc1cnc(C(=O)Nc2cc(C)c(NN=C(C#N)C#N)cn2)cn1 [Compound 13, (4-methyl-6-(5-methylpyrazine-2-carboxamido)pyridin-3-yl)carbonohydrazonoyl dicyanide]	30	110	550		
COc1cc(NN=C(C#N)C#N)ccc1NC(=O)c1cnc(C)cn1 [Compound 10, (3-methoxy-4-(5-methylpyrazine-2-carboxamido)phenyl)carbonohydrazonoyl dicyanide]	0	21.7			
N#CC(C#N)=NNc1ccc(Oc2ccc(C#N)cc2)cc1 [Compound 87, (4-(4-cyanophenoxy)phenyl)carbonohydrazonoyl dicyanide]	0	39.4	1220		
